Source: US7989639B2 (Novartis AG, priority 2006, dated 2011)
Where a name gives a salt, the structure may show the parent alone.

What was measured:
Assay type in all cases: physicochemical
[1] = Thermogravimetric analysis (TGA) of the salts: loss on drying, desolvation and decomposition temperature; details: for Tdecomposition: approximated by onset of first derivative of thermogravimetric curve vs. temperature, salt sample as obtained from the solvent/temperature; for Tdesolvation: value in brackets after LOD
Description: In addition, “loss on drying” (LOD) refers to weight loss determined between ambient and decomposition temperatures. The later is approximated by the onset of the first derivative of the thermogravimetric curve vs. temperature. […] Salt formation, stoichiometry, and the presence or absence of solvents is confirmed by observing the ^1H-NMR chemical shifts of the corresponding salt forming agents and reaction solvents (the tables contain one characteristic chemical shift for salt forming agents or solvents). […] The extent of protonation of the free base is assessed by the change in the chemical shift of the benzylic (Hbz) protons. […] Finally, “-” indicates a measurement not taken.
A stoichiometric amount of acetic acid was subsequently added to the suspension. The mixture was stirred at either 60° C. or ambient temperature (where a clear solution formed, stirring continued at 4° C.). Solids were collected by filtration and analyzed by XRPD, TGA and in some instances ^1H-NMR.

[2] = as above; details: isothermal hold at 120° C. for 10 minutes
[3] = Hygroscopicity / moisture uptake observed on isolation of the salts; details: observation on isolated solid / during filtration
Experimental: A stoichiometric amount of sodium hydroxide was subsequently added to the suspension. The mixture was stirred at 50° C. Once a clear solution formed, stirring continued at 4° C. Solids were collected by filtration and analyzed by XRPD and TGA.
It is noted that the initially formed yellow powder is a polymorph of the mesylate salt that contains more than the equimolar amount of methane sulfonic acid. […] Upon gentle heating to 40 or 50° C. and within 2 to 4 hours, the yellow powder converts to a white crystalline solid that contains the equimolar amount of the methane sulfonic acid. This salt is non-hygroscopic. It is also advised that addition of the methane sulfonic acid is done at ambient temperature and the temperature increased afterwards. It was observed that addition at higher temperature afforded the immediate precipitation of the salt as a soft and gummy material.

Row | Structure (SMILES) | Tdecomposition [1] | other results
1 | Cc1[nH]c2ccccc2c1CCNCc1ccc(/C=C/C(=O)NO)cc1 [acetate salt form A, N-hydroxy-3-[4-[[[2-(2-methyl-1H-indol-3-yl)ethyl]amino]methyl]phenyl]-2E-2-propenamide] | – | Tdecomposition ([1]; salt formed in AcOEt at 60 °C): 147.9 °C; Tdecomposition ([1]; salt formed in IPA at 60 °C): 148.7 °C; Tdesolvation [1]: 72.5 °C
2 | Cc1[nH]c2ccccc2c1CCNCc1ccc(/C=C/C(=O)NO)cc1 [acetate salt form SA, N-hydroxy-3-[4-[[[2-(2-methyl-1H-indol-3-yl)ethyl]amino]methyl]phenyl]-2E-2-propenamide] | 147.9 °C | Tdesolvation [1]: 107.9 °C
3 | Cc1[nH]c2ccccc2c1CCNCc1ccc(/C=C/C(=O)NO)cc1 [benzoate salt form A, N-hydroxy-3-[4-[[[2-(2-methyl-1H-indol-3-yl)ethyl]amino]methyl]phenyl]-2E-2-propenamide] | 160.2 °C | –
4 | Cc1[nH]c2ccccc2c1CCNCc1ccc(/C=C/C(=O)NO)cc1 [benzoate salt form SA, N-hydroxy-3-[4-[[[2-(2-methyl-1H-indol-3-yl)ethyl]amino]methyl]phenyl]-2E-2-propenamide] | at 110 °C | LOD % (isothermal) [2]: 5.2%
5 | Cc1[nH]c2ccccc2c1CCNCc1ccc(/C=C/C(=O)NO)cc1 [benzoate salt form SB, N-hydroxy-3-[4-[[[2-(2-methyl-1H-indol-3-yl)ethyl]amino]methyl]phenyl]-2E-2-propenamide] | dec. at 100 °C | LOD % (isothermal) [2]: 6.3%
6 | Cc1[nH]c2ccccc2c1CCNCc1ccc(/C=C/C(=O)NO)cc1 [calcium salt, N-hydroxy-3-[4-[[[2-(2-methyl-1H-indol-3-yl)ethyl]amino]methyl]phenyl]-2E-2-propenamide] | – | Hygroscopicity [3]: less hygroscopic than the sodium or potassium salt
7 | Cc1[nH]c2ccccc2c1CCNCc1ccc(/C=C/C(=O)NO)cc1 [gentisate salt form A, N-hydroxy-3-[4-[[[2-(2-methyl-1H-indol-3-yl)ethyl]amino]methyl]phenyl]-2E-2-propenamide] | 235.5 °C | –
8 | Cc1[nH]c2ccccc2c1CCNCc1ccc(/C=C/C(=O)NO)cc1 [hemi-fumarate salt form B, N-hydroxy-3-[4-[[[2-(2-methyl-1H-indol-3-yl)ethyl]amino]methyl]phenyl]-2E-2-propenamide] | 213.2 °C | –
9 | Cc1[nH]c2ccccc2c1CCNCc1ccc(/C=C/C(=O)NO)cc1 [hemi-fumarate salt form HA, N-hydroxy-3-[4-[[[2-(2-methyl-1H-indol-3-yl)ethyl]amino]methyl]phenyl]-2E-2-propenamide] | 159.8 °C | –
10 | Cc1[nH]c2ccccc2c1CCNCc1ccc(/C=C/C(=O)NO)cc1 [hemi-malate salt form SA, N-hydroxy-3-[4-[[[2-(2-methyl-1H-indol-3-yl)ethyl]amino]methyl]phenyl]-2E-2-propenamide] | 95 °C | –
11 | Cc1[nH]c2ccccc2c1CCNCc1ccc(/C=C/C(=O)NO)cc1 [hemi-malonate salt form A, N-hydroxy-3-[4-[[[2-(2-methyl-1H-indol-3-yl)ethyl]amino]methyl]phenyl]-2E-2-propenamide] | – | Tdecomposition ([1]; salt prepared in EtOH): 169.5 °C; Tdecomposition ([1]; salt prepared in IPA): 174.1 °C
12 | Cc1[nH]c2ccccc2c1CCNCc1ccc(/C=C/C(=O)NO)cc1 [hemi-succinate salt form SA, N-hydroxy-3-[4-[[[2-(2-methyl-1H-indol-3-yl)ethyl]amino]methyl]phenyl]-2E-2-propenamide] | 155.8 °C | Tdesolvation [1]: (90.6) (2- ° C.
13 | Cc1[nH]c2ccccc2c1CCNCc1ccc(/C=C/C(=O)NO)cc1 [hemi-tartarate salt form B, N-hydroxy-3-[4-[[[2-(2-methyl-1H-indol-3-yl)ethyl]amino]methyl]phenyl]-2E-2-propenamide] | >160 °C | –
14 | Cc1[nH]c2ccccc2c1CCNCc1ccc(/C=C/C(=O)NO)cc1 [hydrochloride salt form A, N-hydroxy-3-[4-[[[2-(2-methyl-1H-indol-3-yl)ethyl]amino]methyl]phenyl]-2E-2-propenamide] | 232.3 °C | –
15 | Cc1[nH]c2ccccc2c1CCNCc1ccc(/C=C/C(=O)NO)cc1 [maleate salt form HA, N-hydroxy-3-[4-[[[2-(2-methyl-1H-indol-3-yl)ethyl]amino]methyl]phenyl]-2E-2-propenamide] | 150 °C | –
16 | Cc1[nH]c2ccccc2c1CCNCc1ccc(/C=C/C(=O)NO)cc1 [maleate salt polymorph from 2-propanol (yellow powder)] [N-hydroxy-3-[4-[[[2-(2-methyl-1H-indol-3-yl)ethyl]amino]methyl]phenyl]-2E-2-propenamide] | 118.9 °C | –
17 | Cc1[nH]c2ccccc2c1CCNCc1ccc(/C=C/C(=O)NO)cc1 [mesylate salt form A, N-hydroxy-3-[4-[[[2-(2-methyl-1H-indol-3-yl)ethyl]amino]methyl]phenyl]-2E-2-propenamide] | 170.9 °C | Hygroscopicity ([3]; listed as mesylate salt yellow powder): very highly hygroscopic
18 | Cc1[nH]c2ccccc2c1CCNCc1ccc(/C=C/C(=O)NO)cc1 [mesylate salt form B, N-hydroxy-3-[4-[[[2-(2-methyl-1H-indol-3-yl)ethyl]amino]methyl]phenyl]-2E-2-propenamide] | – | Hygroscopicity ([3]; listed as mesylate salt white crystalline solid): non-hygroscopic
19 | Cc1[nH]c2ccccc2c1CCNCc1ccc(/C=C/C(=O)NO)cc1 [mesylate salt forms A + B, N-hydroxy-3-[4-[[[2-(2-methyl-1H-indol-3-yl)ethyl]amino]methyl]phenyl]-2E-2-propenamide] | 172.8 °C | –
20 | Cc1[nH]c2ccccc2c1CCNCc1ccc(/C=C/C(=O)NO)cc1 [oxalate salts, N-hydroxy-3-[4-[[[2-(2-methyl-1H-indol-3-yl)ethyl]amino]methyl]phenyl]-2E-2-propenamide] | – | Hygroscopicity [3]: appear to absorb water during filtration
21 | Cc1[nH]c2ccccc2c1CCNCc1ccc(/C=C/C(=O)NO)cc1 [phosphate salt form HA, N-hydroxy-3-[4-[[[2-(2-methyl-1H-indol-3-yl)ethyl]amino]methyl]phenyl]-2E-2-propenamide] | 179.6 °C | –
22 | Cc1[nH]c2ccccc2c1CCNCc1ccc(/C=C/C(=O)NO)cc1 [potassium salt, N-hydroxy-3-[4-[[[2-(2-methyl-1H-indol-3-yl)ethyl]amino]methyl]phenyl]-2E-2-propenamide] | – | Hygroscopicity [3]: highly hygroscopic
23 | Cc1[nH]c2ccccc2c1CCNCc1ccc(/C=C/C(=O)NO)cc1 [sodium salt, N-hydroxy-3-[4-[[[2-(2-methyl-1H-indol-3-yl)ethyl]amino]methyl]phenyl]-2E-2-propenamide] | – | Hygroscopicity [3]: highly hygroscopic
24 | Cc1[nH]c2ccccc2c1CCNCc1ccc(/C=C/C(=O)NO)cc1 [sulfate salt form A, N-hydroxy-3-[4-[[[2-(2-methyl-1H-indol-3-yl)ethyl]amino]methyl]phenyl]-2E-2-propenamide] | ~160 °C | Hygroscopicity [3]: hygroscopic
25 | Cc1[nH]c2ccccc2c1CCNCc1ccc(/C=C/C(=O)NO)cc1 [sulfate salt form SA, N-hydroxy-3-[4-[[[2-(2-methyl-1H-indol-3-yl)ethyl]amino]methyl]phenyl]-2E-2-propenamide] | 162 °C | –
26 | Cc1[nH]c2ccccc2c1CCNCc1ccc(/C=C/C(=O)NO)cc1 [zinc salt, N-hydroxy-3-[4-[[[2-(2-methyl-1H-indol-3-yl)ethyl]amino]methyl]phenyl]-2E-2-propenamide] | – | Hygroscopicity [3]: less hygroscopic than the sodium or potassium salt
